From patent US20240407990A1, “SYNERGISTIC ANTIOXIDANT COMPOSITIONS” (The Procter & Gamble Company, priority 2023, published 2024)

Columns and labels:
keratinocytes = experiment: Peroxide-Induced Keratinocyte Stress (ATP levels post-peroxide exposure); format: cell-based; parameters: key: net luminescence counts (treatment minus vehicle control)
Excerpt: This methodology is further discussed in Assessing bioenergetic function in response to oxidative stress by metabolic profiling. Free Radical Biology and Medicine; […], Benavides […], Zelickson […]. Zou L, Chatham J C, Hill B G, Zhang […]; 2011 Nov. 1; 51(9):1621-35, incorporated herein by reference, as well as in Proceedings of the National Academy of Sciences of the United States of America; Miyoshi N, Oubrahim H, Chock […] . . . 2006 Feb. 7; 103(6):1727-31, incorporated herein by reference. […] Hydrogen peroxide is a well-known ROS as is commonly used as a surrogate to analyze the effects of a variety of ROS. In this test, keratinocytes are cultured (passage <8) in T150 flasks using Epi-Life medium (Calcium Free and Phenol Red Free, supplemented with penicillin/streptomycin and keratinocytes growth supplement, Invitrogen cat #[…]500) in a CO2 incubator (Forma 51030532, Marietta OH). The keratinocytes are then plated into 96 well plates, 10,000 cells/well, 0.2 ml media. […] Luminescence is measured on a SpectraMax M3 (Molecular Devices, Sunnyvale, CA). Net luminescence is calculated by subtracting the luminescence counts from the vehicle control from the luminescence counts from the treatment groups. […] In each case, the arithmetic sum of the measured anti-oxidant activity of the three individual components is compared to the measured anti-oxidant activity of the triad combination of the same levels. Experiments are done in triplicate enabling the statistical determination (by T-test) of significance of whether synergism (observed/calculated ratio is greater than 1) is observed.

skin = settings: cited from earlier work
skin fibroblasts = skin fibroblasts in vitro; cited from earlier work

For `NC(=O)c1cccnc1` [Niacinamide, niacinamide], the “Mean Keratinocyte ATP Level” value (keratinocytes; Niacinamide 0.005% alone, post-peroxide, series with PO 0.5%) was 100.3, the “Mean Keratinocyte ATP Level” value (keratinocytes; Niacinamide 0.005% alone, post-peroxide, series with PO 0.8%) was 32.7 and the “Mean Keratinocyte ATP Level” value (keratinocytes; Niacinamide 0.01% alone, post-peroxide, series with PO 0.5%) was 154.3. The “Mean Keratinocyte ATP Level” value (keratinocytes; Niacinamide 0.01% alone, post-peroxide, series with PO 0.8%) was 85.7, the “Mean Keratinocyte ATP Level” value (keratinocytes; Niacinamide 0.05% alone, post-peroxide, series with PO 0.5%) was 341.0 and the “Mean Keratinocyte ATP Level” value (keratinocytes; Niacinamide 0.05% alone, post-peroxide, series with PO 0.8%) was 465.0. The “Mean Keratinocyte ATP Level” value (keratinocytes; Niacinamide 0.1% alone, post-peroxide, series with PO 0.5%) was 1142.0, the “Mean Keratinocyte ATP Level” value (keratinocytes; Niacinamide 0.1% alone, post-peroxide, series with PO 0.8%) was 875.0 and the “Mean Keratinocyte ATP Level” value (keratinocytes; Niacinamide 1.0% alone, post-peroxide, series with PO 0.5%) was 9208.3. For the same compound, the “Mean Keratinocyte ATP Level” value (keratinocytes; Niacinamide 1.0% alone, post-peroxide, series with PO 0.8%) was 6003.7, the “Mean Keratinocyte ATP Level” value (keratinocytes; Niacinamide 1.8% alone, post-peroxide, series with PO 0.5%) was 12314.3 and the “Mean Keratinocyte ATP Level” value (keratinocytes; Niacinamide 1.8% alone, post-peroxide, series with PO 0.8%) was 11751.3. For the same compound, the “lipoperoxide generation in skin” value (skin) was “inhibit” and the “oxidative damage caused by pollutant particulate matter” value (skin) was “inhibit”.

For `CC(C)(CO)[C@@H](O)C(=O)NCCCO` [Panthenol, panthenol], the “Mean Keratinocyte ATP Level” value (keratinocytes; Panthenol 0.005% alone, post-peroxide, series with PO 0.5%) was 193.3, the “Mean Keratinocyte ATP Level” value (keratinocytes; Panthenol 0.005% alone, post-peroxide, series with PO 0.8%) was 170.0 and the “Mean Keratinocyte ATP Level” value (keratinocytes; Panthenol 0.01% alone, post-peroxide, series with PO 0.5%) was 473.3. For the same compound, the “Mean Keratinocyte ATP Level” value (keratinocytes; Panthenol 0.01% alone, post-peroxide, series with PO 0.8%) was 280.0, the “Mean Keratinocyte ATP Level” value (keratinocytes; Panthenol 0.05% alone, post-peroxide, series with PO 0.5%) was 617.3 and the “Mean Keratinocyte ATP Level” value (keratinocytes; Panthenol 0.05% alone, post-peroxide, series with PO 0.8%) was 550.7. For the same compound, the “Mean Keratinocyte ATP Level” value (keratinocytes; Panthenol 0.1% alone, post-peroxide, series with PO 0.5%) was 1234.3, the “Mean Keratinocyte ATP Level” value (keratinocytes; Panthenol 0.1% alone, post-peroxide, series with PO 0.8%) was 1227.7 and the “Mean Keratinocyte ATP Level” value (keratinocytes; Panthenol 0.2% alone, post-peroxide, series with PO 0.5%) was 5282.0. The “Mean Keratinocyte ATP Level” value (keratinocytes; Panthenol 0.2% alone, post-peroxide, series with PO 0.8%) was 5711.7 and the “formation of reactive oxygen species (ROS)” value (skin fibroblasts) was “inhibit”.

In the case of `Cc1cc(CC(C)CC(C)(C)C)n(O)c(=O)c1.NCCO` (stereo not drawn) [Piroctone Olamine, piroctone olamine], the “Mean Keratinocyte ATP Level” value (keratinocytes; Piroctone Olamine 0.5% alone, post-peroxide exposure) is reported as 13548.3 and the “Mean Keratinocyte ATP Level” value (keratinocytes; Piroctone Olamine 0.8% alone, post-peroxide exposure) is reported as 18548.3.
